Publication PMC11606603, “The membrane domains of mammalian adenylyl cyclases are lipid receptors” (eLife, 2024)
Several values for one entry are separate records, joined by “and”; a condition that tells them apart may be missing. Equal values may be shown once.

Key:
mAC6 = target: T1, mAC6 (Homo sapiens, UniProt O43306); test: AC assay, Gsα-stimulated mAC6 in membranes from transfected HEK293 cells; type: biochemical
T1 construct: Human mAC genes were from GenScript and fitted with a C-terminal FLAG-tag; FLAG (C); made in house; host or cells: HEK293, permanently transfected; membrane preparation
How it was run: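 cAMP detected with a Cisbio kit, calibrated by a cAMP standard curve each run. Reaction: 1 mM ATP, 2 mM MgCl2, 3 mM creatine phosphate, 60 μg/ml creatine kinase, 50 mM MOPS pH 7.5. Enzyme source: membranes of stably transfected HEK293 (G418-selected) carrying FLAG-tagged human AC.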

mAC3 = target: T2, mAC3 (Homo sapiens, UniProt O60266); test: AC assay, Gsα-stimulated mAC3 in membranes from transfected HEK293 cells; type: biochemical; parameters: ATP/V (mAC3 + 20µM Oleic acid): unit not given here; details: for ATP/V (mAC3 + 20µM Oleic acid): Hanes-Woolf plot; for mAC3 activity + 20µM Oleic acid: Michaelis-Menten; for mAC3 activity [%] (100% = 300nM Gsα stimulation): individual experiments
T2 construct: Human mAC genes were from GenScript and fitted with a C-terminal FLAG-tag; FLAG (C); made in house; host or cells: HEK293, permanently transfected; membrane preparation
How it was run: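 cAMP formation was quantified by HTRF against a cAMP standard curve, with EC50 or IC50 derived by curve fitting. Reactions contained 1 mM ATP, 2 mM MgCl2, 3 mM creatine phosphate, 60 μg/ml creatine kinase and 50 mM MOPS pH 7.5, using membranes of stably transfected HEK293 cells carrying FLAG-tagged human AC.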

T2 sequence (O60266 whole entry): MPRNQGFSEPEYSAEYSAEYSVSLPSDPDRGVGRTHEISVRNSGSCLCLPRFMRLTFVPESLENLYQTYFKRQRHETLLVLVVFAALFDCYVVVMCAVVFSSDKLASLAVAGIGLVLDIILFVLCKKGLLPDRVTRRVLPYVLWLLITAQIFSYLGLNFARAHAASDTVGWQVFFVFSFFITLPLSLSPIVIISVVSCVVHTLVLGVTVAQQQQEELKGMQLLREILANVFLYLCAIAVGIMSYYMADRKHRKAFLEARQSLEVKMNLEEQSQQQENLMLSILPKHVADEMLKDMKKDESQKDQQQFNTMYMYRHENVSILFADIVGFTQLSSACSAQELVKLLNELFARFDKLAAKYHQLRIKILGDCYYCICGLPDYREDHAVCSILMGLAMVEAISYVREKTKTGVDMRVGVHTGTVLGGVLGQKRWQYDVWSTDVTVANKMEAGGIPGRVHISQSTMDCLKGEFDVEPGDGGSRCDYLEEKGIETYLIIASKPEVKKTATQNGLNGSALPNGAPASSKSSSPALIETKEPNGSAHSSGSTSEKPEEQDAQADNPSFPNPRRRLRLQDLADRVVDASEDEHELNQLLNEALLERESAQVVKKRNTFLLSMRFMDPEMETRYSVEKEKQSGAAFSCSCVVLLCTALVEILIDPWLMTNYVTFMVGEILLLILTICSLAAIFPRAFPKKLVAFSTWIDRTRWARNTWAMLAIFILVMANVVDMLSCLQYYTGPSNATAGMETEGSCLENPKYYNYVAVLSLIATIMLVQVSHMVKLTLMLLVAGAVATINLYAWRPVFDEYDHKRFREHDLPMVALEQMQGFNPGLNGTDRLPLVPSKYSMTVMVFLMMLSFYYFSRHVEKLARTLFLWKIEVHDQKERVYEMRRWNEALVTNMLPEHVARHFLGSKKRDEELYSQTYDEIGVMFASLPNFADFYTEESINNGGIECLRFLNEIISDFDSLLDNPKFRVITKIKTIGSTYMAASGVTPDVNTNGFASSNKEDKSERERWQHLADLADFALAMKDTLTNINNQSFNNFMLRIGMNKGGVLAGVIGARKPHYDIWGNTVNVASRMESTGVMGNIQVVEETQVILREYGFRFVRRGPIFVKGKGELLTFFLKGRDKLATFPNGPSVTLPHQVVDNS
T2 sequence (P63092 whole entry Q227L partner): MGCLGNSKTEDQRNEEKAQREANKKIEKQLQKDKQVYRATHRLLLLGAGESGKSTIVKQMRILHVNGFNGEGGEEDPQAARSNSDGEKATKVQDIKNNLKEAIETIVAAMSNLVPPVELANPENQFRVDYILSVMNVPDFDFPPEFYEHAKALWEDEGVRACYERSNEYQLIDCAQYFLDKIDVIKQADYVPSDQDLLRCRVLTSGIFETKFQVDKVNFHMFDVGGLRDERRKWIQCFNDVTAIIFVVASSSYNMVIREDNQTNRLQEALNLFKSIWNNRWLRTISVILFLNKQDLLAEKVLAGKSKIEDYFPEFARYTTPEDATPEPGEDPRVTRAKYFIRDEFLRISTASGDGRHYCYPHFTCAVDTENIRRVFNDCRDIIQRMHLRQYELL
T1 sequence (O43306 whole entry): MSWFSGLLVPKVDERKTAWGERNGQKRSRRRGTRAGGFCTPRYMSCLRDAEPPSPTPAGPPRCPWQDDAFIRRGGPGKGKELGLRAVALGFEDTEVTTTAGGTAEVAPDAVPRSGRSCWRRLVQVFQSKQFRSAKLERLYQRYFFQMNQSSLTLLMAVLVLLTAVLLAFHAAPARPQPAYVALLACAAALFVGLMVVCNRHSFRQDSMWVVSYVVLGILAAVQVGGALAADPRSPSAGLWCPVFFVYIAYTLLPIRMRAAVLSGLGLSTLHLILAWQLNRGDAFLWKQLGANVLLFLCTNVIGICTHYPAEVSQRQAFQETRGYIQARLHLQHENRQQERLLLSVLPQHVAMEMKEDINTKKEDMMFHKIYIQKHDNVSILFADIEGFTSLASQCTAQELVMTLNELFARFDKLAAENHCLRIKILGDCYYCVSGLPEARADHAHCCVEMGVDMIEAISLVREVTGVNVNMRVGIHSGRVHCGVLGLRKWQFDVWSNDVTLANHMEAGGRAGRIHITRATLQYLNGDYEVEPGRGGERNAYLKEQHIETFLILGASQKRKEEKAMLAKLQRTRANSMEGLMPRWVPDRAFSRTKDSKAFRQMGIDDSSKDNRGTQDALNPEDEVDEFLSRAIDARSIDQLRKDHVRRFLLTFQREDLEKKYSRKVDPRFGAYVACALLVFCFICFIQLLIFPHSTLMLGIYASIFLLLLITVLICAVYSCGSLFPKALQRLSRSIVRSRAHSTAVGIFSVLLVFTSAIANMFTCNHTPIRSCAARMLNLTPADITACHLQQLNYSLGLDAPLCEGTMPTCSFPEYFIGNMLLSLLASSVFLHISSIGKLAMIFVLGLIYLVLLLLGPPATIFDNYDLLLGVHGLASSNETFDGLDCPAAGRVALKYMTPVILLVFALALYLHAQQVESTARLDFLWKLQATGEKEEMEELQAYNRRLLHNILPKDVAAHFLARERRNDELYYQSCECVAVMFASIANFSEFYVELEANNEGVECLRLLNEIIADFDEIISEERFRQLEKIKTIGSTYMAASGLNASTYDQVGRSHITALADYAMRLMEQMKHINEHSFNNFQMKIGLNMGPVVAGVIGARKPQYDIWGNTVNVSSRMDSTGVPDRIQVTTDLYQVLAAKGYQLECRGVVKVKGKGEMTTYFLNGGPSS

**Q.** What does the source list for `CCCCCCCC/C=C\CCCCCCCC(=O)O` [Oleic acid, Oleic ((9Z)-octadecenoic) acid]?
**A.** mAC6 activity [%] (100% = 300nM Gsα stimulation) (mAC6; 20µM fatty acid concentration): 92% and 80% and 133%; Effect of lipid on 300 nM Gsα-stimulated mAC6 (mAC6; 20 µM, in words): unaffected; mAC activity [%] (100% = 300nM Gsα stimulation); 20µM Oleic acid concentration, mAC6 (mAC6; Figure 5 A, 20 µM oleic acid, 300 nM Gsα): 92% and 80% and 133%; time over which the action on mAC3 was linear (mAC3; 300 nM Gsα + 20 µM oleic acid, 37°C): > 25 min; enhancement of cAMP formation, mAC3 (mAC3; 20 µM oleic, over the Gsα concentration range tested): about 3.4 fold; Effect of lipid on 300 nM Gsα-stimulated mAC3 (mAC3; 20 µM, in words): threefold; activity, mAC3 + 20µM Oleic acid (mAC3; Gsα 100 nM): 0.209 cAMP nmol/mg/min and 0.110 cAMP nmol/mg/min and 0.112 cAMP nmol/mg/min; activity, mAC3 + 20µM Oleic acid (mAC3; Gsα 300 nM): 0.432 cAMP nmol/mg/min and 0.605 cAMP nmol/mg/min and 0.596 cAMP nmol/mg/min; activity, mAC3 + 20µM Oleic acid (mAC3; Gsα 450 nM): 0.779 cAMP nmol/mg/min and 1.182 cAMP nmol/mg/min and 0.727 cAMP nmol/mg/min; activity, mAC3 + 20µM Oleic acid (mAC3; Gsα 600 nM): 0.825 cAMP nmol/mg/min and 1.078 cAMP nmol/mg/min and 1.302 cAMP nmol/mg/min; activity, mAC3 + 20µM Oleic acid (mAC3; Gsα 800 nM): 1.075 cAMP nmol/mg/min and 1.164 cAMP nmol/mg/min and 1.303 cAMP nmol/mg/min; activity, mAC3 + 20µM Oleic acid (mAC3; Gsα 1000 nM): 1.029 cAMP nmol/mg/min and 1.444 cAMP nmol/mg/min and 1.731 cAMP nmol/mg/min; ATP/V (mAC3 + 20µM Oleic acid) (mAC3; ATP 50 µM): 208.8; ATP/V (mAC3 + 20µM Oleic acid) (mAC3; ATP 75 µM): 204.9; ATP/V (mAC3 + 20µM Oleic acid) (mAC3; ATP 250 µM): 392.9; ATP/V (mAC3 + 20µM Oleic acid) (mAC3; ATP 500 µM): 636.9; ATP/V (mAC3 + 20µM Oleic acid) (mAC3; ATP 750 µM): 814.6; ATP/V (mAC3 + 20µM Oleic acid) (mAC3; ATP 1000 µM): 941.6; mAC3 activity + 20µM Oleic acid (mAC3; ATP 50 µM): 0.232 nmol cAMP/mg/min and 0.247 nmol cAMP/mg/min; mAC3 activity + 20µM Oleic acid (mAC3; ATP 75 µM): 0.434 nmol cAMP/mg/min and 0.298 nmol cAMP/mg/min; mAC3 activity + 20µM Oleic acid (mAC3; ATP 250 µM): 0.713 nmol cAMP/mg/min and 0.609 nmol cAMP/mg/min and 0.587 nmol cAMP/mg/min; mAC3 activity + 20µM Oleic acid (mAC3; ATP 500 µM): 0.786 nmol cAMP/mg/min and 0.782 nmol cAMP/mg/min and 0.787 nmol cAMP/mg/min; mAC3 activity + 20µM Oleic acid (mAC3; ATP 750 µM): 0.817 nmol cAMP/mg/min and 0.753 nmol cAMP/mg/min and 1.192 nmol cAMP/mg/min; mAC3 activity + 20µM Oleic acid (mAC3; ATP 1000 µM): 0.944 nmol cAMP/mg/min and 1.156 nmol cAMP/mg/min and 1.086 nmol cAMP/mg/min; EC50 (mAC3; enhancement of 300 nM Gsα-stimulated activity): 10.4 µM; mAC3 activity [%] (100% = 300nM Gsα stimulation) (mAC3; fatty acid 0.5 µM): 100%; mAC3 activity [%] (100% = 300nM Gsα stimulation) (mAC3; fatty acid 1 µM): 112% and 105% and 91% and 64% and 97% and 107% and 78% and 95% and 111% and 139% and 103% and 106% and 87%; mAC3 activity [%] (100% = 300nM Gsα stimulation) (mAC3; fatty acid 3 µM): 98% and 158% and 97% and 183% and 141% and 160% and 142% and 105% and 145% and 150%; mAC3 activity [%] (100% = 300nM Gsα stimulation) (mAC3; fatty acid 6 µM): 117% and 105% and 165% and 187% and 143% and 169% (2×) and 166% and 97%; mAC3 activity [%] (100% = 300nM Gsα stimulation) (mAC3; fatty acid 10 µM): 271% and 106% and 156% and 151% and 142% and 280% and 178% and 252% and 181% and 191% and 139% and 175% and 284% and 260% and 266% and 166%; mAC3 activity [%] (100% = 300nM Gsα stimulation) (mAC3; fatty acid 20 µM): 341% and 348% and 429% and 323% and 430% and 264% and 322% and 395% and 181% and 452% and 464% and 265% (2×)
